Test system: 4T1-HER2 expressing tumors
Experiment: Survivin expression in the mouse 4T1-HER2 tumor model
Type: in vivo

CS(=O)(=O)CCNCc1ccc(-c2ccc3ncnc(Nc4ccc(OCc5cccc(F)c5)c(Cl)c4)c3c2)o1 [lapatinib]
survivin expression: no change in survivin expression

Source: patent publication US11235043B2, “Vaccines against antigens involved in therapy resistance and methods of using same” (Duke University, priority 2012, dated 2022)
